SMILES | melting point [°C]
COc1ccc(C(=O)Nc2ccccc2S(C)(=O)=O)cc1OC1CCCC1 [BM, N-(2-methylsulfonylphenyl)-3-cyclopentyloxy-4-methoxybenzamide] | 119 to 121
COc1ccc(C(=O)Nc2c(Cl)cc(NC(C)=O)cc2Cl)cc1OC1CCCC1 [BU, N-(4-acetylamino-2,6-dichlorophenyl)-3-cyclopentyloxy-4-methoxybenzamide] | 250 to 252
COc1ccc(C(=O)Nc2c(Cl)cc(C=O)cc2Cl)cc1OC1CCCC1 [BY, N-(2,6-dichloro-4-formylphenyl)-3-cyclopentyloxy-4-methoxy-benzamide] | 96 to 98
COc1c[n+]([O-])c(C(=O)Nc2c(Cl)cncc2Cl)cc1OCC1CC1 [FZ, N-(3,5-dichloropyridin-4-yl)-4-cyclopropylmethoxy-5-methoxy-1-oxidopyridinium-2-carboxamide] | 178 to 180
COc1ccc(C(=O)Nc2c(Cl)cc(CO)cc2Cl)cc1OC1CCCC1 [BW, N-(2,6-dichloro-4-hydroxymethylphenyl)-3-cyclopentyloxy-4-methoxybenzamide] | 174 to 176
COc1ccc(C(=O)Nc2c(Cl)cncc2Cl)cc1OC1CC=CC1 [BK, N-(3,5-dichloropyrid-4-yl)-3-cyclopent-3-enyloxy-4-methoxybenzamide] | 193 to 195
COc1ccc(C(=O)C(=O)c2ccncc2)cc1OC1CCCC1 [Compound GK, 1-(3-cyclopentyloxy-4-methoxyphenyl)-2-(pyrid-4-yl)ethane-1,2-dione] | 117 to 119
COc1ncc(C(=O)Nc2c(Cl)cccc2Cl)cc1OC1CCCC1 [Compound CP, N-(2,6-dichlorophenyl)-5-cyclopentyloxy-6-methoxynicotinamide] | 145 to 146
CSc1ncc(C(=O)Cc2c(Cl)cncc2Cl)cc1OC(C)C [Compound CW, 2-(3,5-dichloro-4-pyridyl)-1-(5-isopropyloxy-6-methylthio-3-pyridyl)ethanone] | 124 to 125
COc1ccc(C(=O)Nc2c(Cl)cc(N)cc2Cl)cc1OC1CCCC1 [BS, N-(2,6-dichloro-4-aminophenyl)-3-cyclopentyloxy-4-methoxybenzamide] | 170 to 172
COc1ccc(/C=C/c2c(Cl)cccc2Cl)cc1OC1CCCC1 [Compound GF, trans-1-(3-cyclopentyloxy-4-methoxyphenyl)-2-(2,6-dichlorophenyl)ethene] | 47 to 49
COc1ccc(C(=O)Nc2c(Cl)cncc2Cl)cc1OC1C=CCC1 (racemic) [BI, (±)-N-(3,5-dichloropyrid-4-yl)-3-cyclopent-2-enyloxy-4-methoxybenzamide] | 177 to 178
COc1ncc(C(=O)Nc2c(C)noc2C)cc1OC1CCCC1 [Compound CQ, 5-cyclopentyloxy-N-(3,5-dimethylisoxazol-4-yl)-6-methoxynicotinamide] | 139 to 140
Cc1ncc(C(=S)Nc2c(Cl)cncc2Cl)cc1OC(C)C [Compound CV, N-(3,5-dichloro-4-pyridyl)-5-isopropyloxy-6-methylthionicotinamide] | 167 to 168

Now from value to molecule:

melting point [°C] | SMILES
132 | COc1cnc(C(=O)Cc2c(Cl)cncc2Cl)cc1OC1CCCC1 [Compound FG, 1-(4-cyclopentyloxy-5-methoxypyridin-2-yl)-2-(3,5-dichloropyridin-4-yl)ethanone]
115 to 116.5 | COc1cc(F)c(C(=O)Cc2c(Cl)cncc2Cl)cc1OC1CCCC1 [Compound CH, 2-(3,5-dichloropyrid-4-yl)-1-(3-cyclopentyloxy-6-fluoro-4-methoxyphenyl)ethanone]
182 to 183 | COc1ncc(C(=O)Nc2c(Cl)cncc2Cl)cc1OC1CCCC1 [Compound CO, 5-cyclopentyloxy-N-(3,5-dichloropyrid-4-yl)-6-methoxynicotinamide]
144 to 145 | Cc1ncc(C(=S)Nc2c(Cl)cncc2Cl)cc1OC1CCCC1 [Compound CU, 5-cyclopentyloxy-N-(3,5-dichloro-4-pyridyl)-6-methylthionicotinamide]
118 to 119 | COc1ncc(C(=O)Cc2c(Cl)cncc2Cl)cc1OC1CCCC1 [Compound CT, 1-(5-cyclopentyloxy-6-methoxypyridin-3-yl)-2-(3,5-dichloropyrid-4-yl)ethanone]
164 to 166 | COc1ccc(C(=O)Nc2c(Cl)cncc2Cl)nc1OC1CCCC1 [Compound CS, 6-cyclopentyloxy-N-(3,5-dichloropyrid-4-yl)-5-methoxypyridine-2-carboxamide]
143 to 144 | COc1cc(F)c(C(=O)Nc2c(Cl)cncc2Cl)cc1OC1CCCC1 [A, N-(3,5-dichloropyrid-4-yl)-3-cyclopentyloxy-6-fluoro-4-methoxybenzamide]
129 to 130 | COc1cnc(C(=O)Nc2c(Cl)cncc2Cl)cc1OC1CCCC1 [DA, N-(3,5-dichloropyrid-4-yl)-4-cyclopentyloxy-5-methoxypyridine-2-carboxamide]
210 to 211 | COc1ncc(C(=O)Nc2c(F)cncc2F)cc1OC1CCCC1 [Compound CR, 5-cyclopentyloxy-N-(3,5-difluoropyrid-4-yl)-6-methoxynicotinamide]
131 to 132 | O=C(Nc1c(Cl)cncc1Cl)c1cc(OC2CCCC2)c(OC(F)F)cn1 [Compound GO, N-(3,5-dichloropyridin-4-yl)-4-cyclopentyloxy-5-difluoromethoxypyridine-2-carboxamide]

From patent US8129537B2, “Compounds as PDE IV and TNF inhibitors” (Rhone-Poulenc Rorer Limited, priority 1993, dated 2012)
